Reference: paper PMC5218480 (PLoS ONE, 2017)

Test system: MV-4-11 cells
Test: Gene expression microarray analysis (Affymetrix PrimeView) and GSEA
Assay type: cell-based, human
Set-up: RFU PODN (11730768_x_at) / Fold change /veh PODN (11730768_x_at) / RFU LINC00158 (11744669_a_at) / Fold change /veh LINC00158 (11744669_a_at) / RFU DUSP10 (11751237_a_at) / Fold change /veh DUSP10 (11751237_a_at) / RFU ID3 (11757404_x_at) / Fold change /veh ID3 (11757404_x_at) / RFU PLEKHG5 (11737974_s_at) / Fold change /veh PLEKHG5 (11737974_s_at) / RFU LRRC4B (11730491_at) / Fold change /veh LRRC4B (11730491_at) / RFU GIMAP4 (11747438_a_at) / Fold change /veh GIMAP4 (11747438_a_at) / RFU KRT8 (11758183_x_at) / Fold change /veh KRT8 (11758183_x_at) / RFU CNN1 (11734310_a_at) / Fold change /veh CNN1 (11734310_a_at) / RFU VPS37D (11726825_at) / Fold change /veh VPS37D (11726825_at) / RFU C10orf10 (11716522_x_at) / Fold change /veh C10orf10 (11716522_x_at) / RFU KIR2DL2 /// KIR2DL4 /// KIR2DL5A /// KIR2DL5B /// KIR2DS1 /// KIR2DS2 /// KIR2DS3 /// KIR2DS4 /// KIR3DL3 /// KIR3DL3 /// KIR3DS1 (11738374_at) / Fold change /veh KIR2DL2 /// KIR2DL4 /// KIR2DL5A /// KIR2DL5B /// KIR2DS1 /// KIR2DS2 /// KIR2DS3 /// KIR2DS4 /// KIR3DL3 /// KIR3DL3 /// KIR3DS1 (11738374_at) / RFU C1QL1 (11718748_at) / Fold change /veh C1QL1 (11718748_at) / RFU TMPRSS4 (11747572_a_at) / Fold change /veh TMPRSS4 (11747572_a_at) / RFU HAMP (11756126_x_at) / Fold change /veh HAMP (11756126_x_at) / RFU RNFT2 (11725882_a_at) / Fold change /veh RNFT2 (11725882_a_at) / RFU NR4A2 (11747474_a_at) / Fold change /veh NR4A2 (11747474_a_at) / RFU ABCC12 (11746883_a_at) / Fold change /veh ABCC12 (11746883_a_at) / RFU TMEM136 (11760407_x_at) / Fold change /veh TMEM136 (11760407_x_at) / RFU CLDN22 /// WWC2 (11732394_at) / Fold change /veh CLDN22 /// WWC2 (11732394_at) / RFU HLA-DPB1 (11760878_x_at) / Fold change /veh HLA-DPB1 (11760878_x_at) / RFU SPINT1 (11716480_a_at) / Fold change /veh SPINT1 (11716480_a_at) / RFU GAP43 (11754022_s_at) / Fold change /veh GAP43 (11754022_s_at) / RFU A4GNT (11735810_at) / Fold change /veh A4GNT (11735810_at) / RFU PRB3 (11715151_x_at) / Fold change /veh PRB3 (11715151_x_at) / RFU TUBB4B (11761932_at) / Fold change /veh TUBB4B (11761932_at) / RFU CAPN14 (11732068_a_at) / Fold change /veh CAPN14 (11732068_a_at) / RFU TMCC2 (11721928_a_at) / Fold change /veh TMCC2 (11721928_a_at) / RFU IRGQ (11745062_a_at) / Fold change /veh IRGQ (11745062_a_at) / RFU FAM174B (11720279_a_at) / Fold change /veh FAM174B (11720279_a_at) / RFU TMPRSS4 (11748680_a_at) / Fold change /veh TMPRSS4 (11748680_a_at) / RFU FAM212B (11763350_a_at) / Fold change /veh FAM212B (11763350_a_at) / RFU PLEKHG5 (11743358_a_at) / Fold change /veh PLEKHG5 (11743358_a_at) / RFU ZSCAN30 (11745921_a_at) / Fold change /veh ZSCAN30 (11745921_a_at) / RFU CMKLR1 (11741424_a_at) / Fold change /veh CMKLR1 (11741424_a_at) / RFU LOC101060620 /// MAPK8IP1 (11723275_at) / Fold change /veh LOC101060620 /// MAPK8IP1 (11723275_at) / RFU SPTSSB (11747773_x_at) / Fold change /veh SPTSSB (11747773_x_at) / RFU PRSS12 (11739890_at) / Fold change /veh PRSS12 (11739890_at) / RFU BIN1 (11741810_x_at) / Fold change /veh BIN1 (11741810_x_at) / RFU WNT11 (11732464_a_at) / Fold change /veh WNT11 (11732464_a_at) / RFU C10orf10 (11716521_a_at) / Fold change /veh C10orf10 (11716521_a_at) / RFU C5orf56 (11738089_at) / Fold change /veh C5orf56 (11738089_at) / RFU CYB561 (11721691_x_at) / Fold change /veh CYB561 (11721691_x_at) / RFU ANKRD19P (11752326_a_at) / Fold change /veh ANKRD19P (11752326_a_at) / RFU OR2T12 /// OR2T33 /// OR2T8 (11738714_s_at) / Fold change /veh OR2T12 /// OR2T33 /// OR2T8 (11738714_s_at) / RFU VCAN (11748164_a_at) / Fold change /veh VCAN (11748164_a_at) / RFU JSRP1 (11732532_at) / Fold change /veh JSRP1 (11732532_at) / RFU KRTAP10-11 (11738290_x_at) / Fold change /veh KRTAP10-11 (11738290_x_at) / RFU MYO3A (11730013_a_at) / Fold change /veh MYO3A (11730013_a_at) / RFU EBF3 (11725865_a_at) / Fold change /veh EBF3 (11725865_a_at) / RFU CAMK2N1 (11719241_x_at) / Fold change /veh CAMK2N1 (11719241_x_at) / RFU C5orf56 (11738088_a_at) / Fold change /veh C5orf56 (11738088_a_at) / RFU OLFML3 (11715873_a_at) / Fold change /veh OLFML3 (11715873_a_at) / RFU LOC100653217 /// NTM (11731650_a_at) / Fold change /veh LOC100653217 /// NTM (11731650_a_at) / RFU MAPK11 (11762145_a_at) / Fold change /veh MAPK11 (11762145_a_at) / RFU FIZ1 (11724087_x_at) / Fold change /veh FIZ1 (11724087_x_at) / RFU OASL (11726364_x_at) / Fold change /veh OASL (11726364_x_at) / RFU SOX15 (11748057_x_at) / Fold change /veh SOX15 (11748057_x_at) / RFU CD79A (11719716_a_at) / Fold change /veh CD79A (11719716_a_at) / RFU HIST1H1D (11736915_at) / Fold change /veh HIST1H1D (11736915_at) / RFU CASKIN2 (11723855_a_at) / Fold change /veh CASKIN2 (11723855_a_at) / RFU LOC730098 (11760151_x_at) / Fold change /veh LOC730098 (11760151_x_at) / RFU OR4N2 (11742367_at) / Fold change /veh OR4N2 (11742367_at) / RFU PRRT2 (11749266_a_at) / Fold change /veh PRRT2 (11749266_a_at) / RFU SNX32 (11753110_a_at) / Fold change /veh SNX32 (11753110_a_at) / RFU CDHR5 (11726645_a_at) / Fold change /veh CDHR5 (11726645_a_at) / RFU RCAN1 (11760418_a_at) / Fold change /veh RCAN1 (11760418_a_at) / RFU FAM167A (11723789_a_at) / Fold change /veh FAM167A (11723789_a_at) / RFU FAM26E (11764081_at) / Fold change /veh FAM26E (11764081_at) / RFU ISYNA1 (11749810_s_at) / Fold change /veh ISYNA1 (11749810_s_at) / RFU ACY1 (11761880_at) / Fold change /veh ACY1 (11761880_at) / RFU 11764098_at / Fold change /veh 11764098_at / RFU SAMD14 (11745864_x_at) / Fold change /veh SAMD14 (11745864_x_at) / RFU NPB (11741838_a_at) / Fold change /veh NPB (11741838_a_at) / RFU TMPRSS6 (11731388_a_at) / Fold change /veh TMPRSS6 (11731388_a_at) / RFU KRTAP10-2 (11738614_at) / Fold change /veh KRTAP10-2 (11738614_at) / RFU ARHGAP8 /// PRR5-ARHGAP8 (11727945_x_at) / Fold change /veh ARHGAP8 /// PRR5-ARHGAP8 (11727945_x_at) / RFU KRTAP5-7 /// NADSYN1 (11734609_at) / Fold change /veh KRTAP5-7 /// NADSYN1 (11734609_at) / RFU RASL12 (11751679_a_at) / Fold change /veh RASL12 (11751679_a_at) / RFU CDKN2B (11736163_a_at) / Fold change /veh CDKN2B (11736163_a_at) / RFU PRF1 (11729649_at) / Fold change /veh PRF1 (11729649_at) / RFU, ZNF638 /// ZNF638-IT1 / Fold change vs veh, ZNF638 /// ZNF638-IT1 / RFU, PANK3 / Fold change vs veh, PANK3 / RFU, SH3YL1 / Fold change vs veh, SH3YL1 / RFU, ZEB2 / Fold change vs veh, ZEB2 / RFU, NRIP1 / Fold change vs veh, NRIP1 / RFU, PTTG1IP / Fold change vs veh, PTTG1IP / RFU, CAPN2 / Fold change vs veh, CAPN2 / RFU, MED14 / Fold change vs veh, MED14 / RFU, SNORA58 / Fold change vs veh, SNORA58 / RFU, C1orf63 / Fold change vs veh, C1orf63 / RFU, LRRFIP1 / Fold change vs veh, LRRFIP1 / RFU, NDUFAF7 / Fold change vs veh, NDUFAF7 / RFU, SLC12A2 / Fold change vs veh, SLC12A2 / RFU, IBTK / Fold change vs veh, IBTK / RFU, ESF1 / Fold change vs veh, ESF1 / Fold change vs veh, TMEM50B / RFU, TAOK1 / Fold change vs veh, TAOK1 / RFU, ACBD3 / Fold change vs veh, ACBD3 / RFU, TMA16 / Fold change vs veh, TMA16 / RFU, RWDD3 / Fold change vs veh, RWDD3 / RFU, BCAT1 / Fold change vs veh, BCAT1 / RFU, EDEM3 / Fold change vs veh, EDEM3 / RFU, TMEM33 / Fold change vs veh, TMEM33 / RFU, WDR75 / Fold change vs veh, WDR75 / RFU, AHCTF1 / Fold change vs veh, AHCTF1 / RFU, TFRC / Fold change vs veh, TFRC / RFU, ZDHHC17 / Fold change vs veh, ZDHHC17 / RFU, NOM1 / Fold change vs veh, NOM1 / RFU, ARL8B / Fold change vs veh, ARL8B / RFU, ZBTB11 / Fold change vs veh, ZBTB11 / RFU, TAMM41 / Fold change vs veh, TAMM41 / RFU, KIAA1704 /// LOC100996395 / Fold change vs veh, KIAA1704 /// LOC100996395 / RFU, ING1 / Fold change vs veh, ING1 / RFU, TRMT61B / Fold change vs veh, TRMT61B / RFU, FUBP3 / Fold change vs veh, FUBP3 / RFU, TP53 / Fold change vs veh, TP53 / RFU, TNKS2 / Fold change vs veh, TNKS2 / RFU, ZFP14 / Fold change vs veh, ZFP14 / RFU, ACTR2 / Fold change vs veh, ACTR2 / RFU, PPP3R1 / Fold change vs veh, PPP3R1 / RFU, PIK3R1 / Fold change vs veh, PIK3R1 / RFU, HNRNPA1 / Fold change vs veh, HNRNPA1 / RFU, RNF170 / Fold change vs veh, RNF170 / RFU, ZNF28 / Fold change vs veh, ZNF28 / RFU, RNGTT / Fold change vs veh, RNGTT / RFU, OGT / Fold change vs veh, OGT / RFU, BRD1 / Fold change vs veh, BRD1 / RFU, MARS / Fold change vs veh, MARS / RFU, ZNF655 / Fold change vs veh, ZNF655 / RFU, FAHD1 / Fold change vs veh, FAHD1 / RFU, BDP1 / Fold change vs veh, BDP1 / RFU, LRRCC1 / Fold change vs veh, LRRCC1 / RFU, ARID1A / Fold change vs veh, ARID1A / RFU, ZNF146 / Fold change vs veh, ZNF146 / RFU, ZNF330 / Fold change vs veh, ZNF330 / RFU, GPN3 / Fold change vs veh, GPN3 / RFU, C9orf123 / Fold change vs veh, C9orf123 / RFU, N4BP2L2 / Fold change vs veh, N4BP2L2 / RFU, ARFIP1 / Fold change vs veh, ARFIP1 / RFU, FAM179B / Fold change vs veh, FAM179B / RFU, BCL10 / Fold change vs veh, BCL10 / RFU, UHRF1BP1L / Fold change vs veh, UHRF1BP1L / RFU, BET1 / Fold change vs veh, BET1 / RFU, CNOT2 / Fold change vs veh, CNOT2 / RFU, ZNF268 / Fold change vs veh, ZNF268 / Fold change vs veh, ZNF507 / RFU, DGCR2 / Fold change vs veh, DGCR2 / RFU, WDSUB1 / Fold change vs veh, WDSUB1 / Fold change vs veh, HSP90B1 /// MIR3652 / RFU, ADSS / Fold change vs veh, ADSS / RFU, GK / Fold change vs veh, GK / RFU, ZNF148 / Fold change vs veh, ZNF148 / RFU, TAF9 / Fold change vs veh, TAF9 / RFU, SLC1A5 / Fold change vs veh, SLC1A5 / RFU, SLMO2 / Fold change vs veh, SLMO2 / RFU, ABCC4 / Fold change vs veh, ABCC4 / RFU, LOC101060439 /// RAP1B / Fold change vs veh, LOC101060439 /// RAP1B / RFU, RFX7 / Fold change vs veh, RFX7 / RFU, GTPBP10 / Fold change vs veh, GTPBP10 / RFU, CNEP1R1 / Fold change vs veh, CNEP1R1 / RFU, BIVM-ERCC5 /// ERCC5 / Fold change vs veh, BIVM-ERCC5 /// ERCC5 / RFU, ILF3 / Fold change vs veh, ILF3 / RFU 11762660_at / Fold change /veh 11762660_at / RFU VCAN (11757783_s_at) / Fold change /veh VCAN (11757783_s_at) / RFU DDX43 (11728927_at) / Fold change /veh DDX43 (11728927_at) / RFU KRT8 (11758188_x_at) / Fold change /veh KRT8 (11758188_x_at) / RFU NKD1 (11759106_at) / Fold change /veh NKD1 (11759106_at) / RFU SRD5A1 (11742802_a_at) / Fold change /veh SRD5A1 (11742802_a_at) / RFU TPSAB1 /// TPSB2 (11721975_s_at) / Fold change /veh TPSAB1 /// TPSB2 (11721975_s_at) / RFU GSTM3 (11746129_a_at) / Fold change /veh GSTM3 (11746129_a_at) / RFU IL23R (11737362_x_at) / Fold change /veh IL23R (11737362_x_at) / RFU TMEM51 (11727254_a_at) / Fold change /veh TMEM51 (11727254_a_at) / RFU PIWIL2 (11732686_x_at) / Fold change /veh PIWIL2 (11732686_x_at) / RFU ORM1 (11744905_x_at) / Fold change /veh ORM1 (11744905_x_at) / RFU CCDC152 (11743942_at) / Fold change /veh CCDC152 (11743942_at) / RFU ECM1 (11717891_a_at) / Fold change /veh ECM1 (11717891_a_at) / RFU IL23R (11748794_a_at) / Fold change /veh IL23R (11748794_a_at) / RFU TNFAIP8L3 (11732012_x_at) / Fold change /veh TNFAIP8L3 (11732012_x_at) / RFU MBOAT4 (11741988_at) / Fold change /veh MBOAT4 (11741988_at) / RFU 11764193_at / Fold change /veh 11764193_at / RFU TMEM53 (11763286_at) / Fold change /veh TMEM53 (11763286_at) / RFU MAGEB2 (11727129_at) / Fold change /veh MAGEB2 (11727129_at) / RFU TMEM200A (11744735_a_at) / Fold change /veh TMEM200A (11744735_a_at) / RFU CCDC152 (11751479_a_at) / Fold change /veh CCDC152 (11751479_a_at) / RFU FAM211A (11726209_a_at) / Fold change /veh FAM211A (11726209_a_at) / RFU RGS16 (11746705_a_at) / Fold change /veh RGS16 (11746705_a_at) / RFU VCAN (11755009_s_at) / Fold change /veh VCAN (11755009_s_at) / RFU RHOB (11743442_s_at) / Fold change /veh RHOB (11743442_s_at) / RFU RGS16 (11720943_a_at) / Fold change /veh RGS16 (11720943_a_at) / RFU RGS16 (11720944_at) / Fold change /veh RGS16 (11720944_at) / RFU, VPS4B / Fold change vs veh, VPS4B / RFU, CREB1 / Fold change vs veh, CREB1 / RFU, DNAJC13 / Fold change vs veh, DNAJC13 / RFU, GNAQ / Fold change vs veh, GNAQ / RFU, CDK5R1 / Fold change vs veh, CDK5R1 / RFU, ZRANB3 / Fold change vs veh, ZRANB3 / RFU, CUL4A / Fold change vs veh, CUL4A / RFU, CCNY / Fold change vs veh, CCNY / RFU, UFL1 / Fold change vs veh, UFL1 / RFU, COG3 / Fold change vs veh, COG3 / RFU, DIAPH2 / Fold change vs veh, DIAPH2 / RFU, SKA2 / Fold change vs veh, SKA2 / RFU, AFF3 / Fold change vs veh, AFF3 / RFU, LMF1 / Fold change vs veh, LMF1 / RFU, IPO11 / Fold change vs veh, IPO11 / RFU, DFFB / Fold change vs veh, DFFB / RFU, FOXP1 / Fold change vs veh, FOXP1 / RFU, CARD8 / Fold change vs veh, CARD8 / RFU, STRN3 / Fold change vs veh, STRN3 / RFU, ADK / Fold change vs veh, ADK / RFU, RASSF2 / Fold change vs veh, RASSF2 / RFU, WIPF1 / Fold change vs veh, WIPF1 / RFU, LARP1B / Fold change vs veh, LARP1B / RFU, RASA1 / Fold change vs veh, RASA1 / RFU, RB1 / Fold change vs veh, RB1 / RFU, PPFIA1 / Fold change vs veh, PPFIA1 / RFU, MAT2A / Fold change vs veh, MAT2A / RFU, CCT5 / Fold change vs veh, CCT5 / RFU, WDR92 / Fold change vs veh, WDR92 / RFU, CUX1 / Fold change vs veh, CUX1 / RFU, TTC7A / Fold change vs veh, TTC7A / RFU, TMEM135 / Fold change vs veh, TMEM135 / RFU, DEPTOR / Fold change vs veh, DEPTOR / RFU, CPM / Fold change vs veh, CPM / RFU, DNAJB6 / Fold change vs veh, DNAJB6 / RFU, CACNA2D3 / Fold change vs veh, CACNA2D3 / RFU, DTX4 / Fold change vs veh, DTX4 / RFU, TFCP2 / Fold change vs veh, TFCP2 / RFU, GMCL1 /// GMCL1P1 / Fold change vs veh, GMCL1 /// GMCL1P1 / RFU, AEBP2 / Fold change vs veh, AEBP2 / RFU, SNHG1 /// SNORD22 /// SNORD25 /// SNORD26 /// SNORD27 /// SNORD28 /// SNORD29 /// SNORD31 / Fold change vs veh, SNHG1 /// SNORD22 /// SNORD25 /// SNORD26 /// SNORD27 /// SNORD28 /// SNORD29 /// SNORD31 / Fold change (Aza/veh), C12orf56 (ProbeSet 11735607_a_at) / Fold change (ACY-1035/veh), C12orf56 (ProbeSet 11735607_a_at) / Fold change (Aza/veh), FGFR1OP (ProbeSet 11751329_s_at) / Fold change (ACY-1035/veh), FGFR1OP (ProbeSet 11751329_s_at) / Fold change (Aza/veh), VPS36 (ProbeSet 11739960_a_at) / Fold change (ACY-1035/veh), VPS36 (ProbeSet 11739960_a_at) / RFU SYPL1 (11715823_x_at) / Fold change /veh SYPL1 (11715823_x_at) / RFU IGFBP7 (11715501_s_at) / Fold change /veh IGFBP7 (11715501_s_at) / RFU REEP3 (11722064_at) / Fold change /veh REEP3 (11722064_at) / RFU IGLL1 (11728026_x_at) / Fold change /veh IGLL1 (11728026_x_at): dose or concentration left out as unconfirmed
Conditions: MV-4-11 cells, 48 hours

In the case of `Nc1ncn([C@@H]2O[C@H](CO)[C@@H](O)[C@H]2O)c(=O)n1` [azacitidine], the “RFU SAMD14 (11745864_x_at)” value was 17.52 RFU.
